Laboratory results reported in US6355619B1, “Peptide tumor cell growth inhibitors” (Board of Regents, The University of Texas System, priority 1996, dated 2002).
Read-outs that look alike come from different tables or passages of the source.

Tests used:
[1] = tested on: Hep G2; details: 16 hr
Procedure: The cell lines (4×10^5 cells/well) in RPMI-1640 medium containing 10% fetal bovine serum were incubated with 10 μCi of Na2^51CrO4 (DuPont NEN Co.) for 60 min at 37° C. in a 24 well tissue culture plate. The cells were washed 3 times and then incubated in cell culture medium for 30 min at 37° C. to allow spontaneous lysis of marginally viable cells. […] The cells were cultured for 16 hr at 37° C. and then the radioactivity in the supernatants was counted in a gamma radiation spectrometer. Quadriplicate wells received cell culture medium alone or 2% SDS to determine spontaneous and maximum release, respectively. The percentage lysis was calculated by using the following formula: [formula]

[2] = tested on: A549 (adenocarcinoma of lung); assay: Growth of A549, cell count; type: cell-based; details: A549, 7 days, media replaced every 24 hours
Procedure: FIG. 20 The effect of Antileukinate on growth of A549 (adenocarcinoma of lung). A549 cells were plated at a density of 5×10^3 cells in 24-well plate with growth medium. After the cells adhered to the plate, supernatants were aspirated and culture media containing various concentrations of Antileukinate were added to the wells. The media was replaced every 24 hours and the cells were cultured for 7 days. After incubation, cells were detatched with trypsin-EDTA and the cell number was counted using a hemocytometer. Cell number was decreased in a dose-dependent manner and there are significant differences from control at concentrations greater than, or equal to 50 μM of Antileukinate (p<0.05).

[3] = tested on: A375SM melanoma cells; assay: Tumor cell growth, A375SM; type: cell-based
[4] = tested on: IL-8 receptors on neutrophils; assay: Inhibition of 125I-labeled IL-8 binding to human neutrophils; details: for Receptor 1 Bmax of IL-8, two-site model / Receptor 2 Bmax of IL-8, two-site model: binding isotherms, Lundon I
Procedure: Therefore, in pursuing this aim, the present inventors assayed various other peptide compositions for IL-8 inhibitory activity by screening a library of 400 groups of hexapeptides. In these screening assays, ^125I-labeled interleukin-8 (10^−12 M) was mixed with 100 μM peptide, then added to neutrophils and incubated at 4° C. for 90 min. The bound radioactivity was separated from unbound by centrifugation through a dense cushion of a mixture of paraffin and silicon oils and the ^125I bound to neutrophils was counted in a gamma radiation spectrometer, allowing the results to be expressed as the percent of IL-8 binding which was inhibited.
The use of human subjects for acquisition of neutrophils was approved by the Institutional Review Board for human experimentation. For the preparation of neutrophils, human blood was anticoagulated with heparin for enzyme release studies and with 0.33% sodium citrate for other studies. For chemotactic and enzyme release studies neutrophils were separated by dextran sedimentation and erythrocyte lysis by the method of Boyum (Kohler and Milstein, 1975). For binding studies and cytotoxic studies, the neutrophils were further purified in gradients of Percoll (Pharmacia Fine Chemicals, Piscataway, N.J.) to a purity of 90-93% (Kohler and Milstein, 1975).
Recombinant human IL-8 (72 amino acids; Pepro Tech Inc., Rocky Hill, N.J.) was radioactively labeled with ^125I by the chloramine T method of Hunter and Greenwood (Hunter and Greenwood, 1962). Binding studies were performed according to Besemer et al. (1989), as follows: Neutrophils in phosphate buffered saline pH 7.4 (PBS) containing 0.1% bovine serum albumin (BSA) were incubated with labeled ligand in the presence or absence of the peptide being tested for 90 min at 4° C. to reach equilibrium and then centrifuged at 12,000×g for 3 min in Beckman B microfuge (Beckman Instruments, Fullerton, Calif.), through a cushion consisting of a mixture of paraffin oil Fisher Scientific, Fair Lawn, N.J.) and silicon oil (Serva Co., N.Y., N.Y.). The pellet and supernatant were then counted in a gamma radiation spectrometer. The non-specific binding was estimated to measure the binding in the presence of 100-fold excess of non-labeled ligand. The binding constants were calculated using the computer programs Lundon I and Lundon II.
In these studies, a screening for inhibition was carried out at 100 μM concentration of the peptide being tested, with a 10^−12 M concentration of IL-8. In the first series of studies, twenty peptides were synthesized with the carboxyl-terminal residue of RRWWCX (SEQ ID NO:23) being changed to each of the standard protein amino acids in turn.

[5] = target: IL-8 (Homo sapiens, UniProt P10145); assay: Interaction of the peptide with IL-8; type: binding
IL-8, sequence (P10145 28-99): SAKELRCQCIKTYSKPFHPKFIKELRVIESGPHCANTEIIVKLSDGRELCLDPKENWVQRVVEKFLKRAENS

[6] = tested on: IL-8-stimulated neutrophil enzyme release; assay: β-glucuronidase release from neutrophils stimulated by IL-8; type: cell-based, human
Procedure: FIG. 8. The Effect of Ac-RRWWCR-NH2 (SEQ ID NO:1) on β-glucuronidase Release. Neutrophils pretreated with cytochalasin B were incubated with 100 nM IL-8 (●), 100 nM fMLP (▪), 100 nM C5a (_) or 100 nM leukotriene B4 ? or without any stimulant (◯) in the presence of increasing concentration of Ac-RRWWCR-NH2 (SEQ ID NO:1) for 30 min at 37° C. β-glucuronidase activity of supernatants were measured using phenolphthalein-glucuronic acid as substrate. Analysis of variance was used for multiple comparison.
Neutrophil enzyme release was studied by a modification of the method of Goldstein and colleagues (Goldstein et al., 1973). Cytochalasin B (Sigma Chemical Co.) was stored in dimethyl sulfoxide at a concentration of 5 mg/ml and was diluted to a concentration of 50 μg/ml in Hank's Balanced Salt Solution (HBSS) immediately before use. Cytochalasin B, 200 μl, was added to 1 ml of suspension of neutrophils, 6.25×10^6 cells/ml in HBSS, to achieve a final cytochalasin B concentration of […]. The solution was then incubated in 96 well plates at room temperature for 10 min. The stimulant, 100 μl, was added, and this cell suspension was incubated for 30 min at 37° C. The plates were centrifuged and 100 μl of supernatant was removed. […] After 16 hr incubation at 37° C., 200 μl of 0.2 M Glycine in 0.2 M NaCl, pH10.4 was added to each well and OD540 was measured as the enzyme activity.

[7] = +10 μM Ac-RRWWCR, binding inhibition curves, Lundon II

For RRWWCR [Ac-RRWWCR-NH2], the “% cell lysis” value ([1]; Hep G2, 1 μM peptide) was −2.1 ± 7.5%, the “% cell lysis” value ([1]; Hep G2, 5 μM peptide) was −0.8 ± 8.3% and the “% cell lysis” value ([1]; Hep G2, 20 μM peptide) was 5.8 ± 8.3%. The “% cell lysis” value ([1]; Hep G2, 100 μM peptide) was 0.9 ± 2.9%, the “concentrations with significant difference in cell number from control (p<0.05)” value [2] was at least 50 µM and the “effect on cell growth” value [3] was “suppresses the growth”. For the same substance, the “concentration at which IL-8 binding was suppressed significantly” value ([4]; 1 nM 125I-labeled IL-8 (FIG. 5)) was 100 nM, the EC50 ([4]; 1 nM 125I-labeled IL-8, 90 min at 4° C., multiple replicates, read-out: average EC50 of the binding inhibition curve) was 13.7 ± 0.6 µM and the EC50 ([4]; 1 nM IL-8, FIG. 10, peptide premixed with ligand 15 min, read-out: EC50, inhibition of binding of IL-8 to neutrophils) was about 25 µM. The “inhibition of IL-8 binding to neutrophils” value ([4]; 10 μM peptide (FIG. 9)) was 20%, the “Receptor 1 Bmax of IL-8, two-site model” value ([4]; 10 μM peptide) was 91.9 ± 9.2 fmole/10^6 cells and the “Receptor 2 Bmax of IL-8, two-site model” value ([4]; 10 μM peptide) was 90.9 ± 9.7 fmole/10^6 cells. For the same substance, the “IL-8 binding inhibition at lower peptide concentration (FIG. 1)” value ([4]; 20 μM peptide) was “most potent inhibitor”, the “Receptor 1 Bmax of IL-8, two-site model” value ([4]; 20 μM peptide) was 90.9 ± 27.3 fmole/10^6 cells and the “Receptor 2 Bmax of IL-8, two-site model” value ([4]; 20 μM peptide) was 76.2 ± 11.8 fmole/10^6 cells. The “Receptor 1 Bmax of IL-8, two-site model” value ([4]; 40 μM peptide) was 82.0 ± 25.4 fmole/10^6 cells, the “Receptor 2 Bmax of IL-8, two-site model” value ([4]; 40 μM peptide) was 44.2 ± 30.0 fmole/10^6 cells and the “% INHIB. (IL-8 binding to neutrophils)” value ([4]; 100 μM peptide, 10^−12 M IL-8, hexamer RRWWCX series, first screen) was 112.2%. The “Receptor 1 Bmax of IL-8” value [4, 7] was 11.2 ± 0.8 fmole/10^6 cells, the “Receptor 2 Bmax of IL-8” value [4, 7] was 75.6 ± 0.7 fmole/10^6 cells and the “% INHIB. (IL-8 binding to neutrophils)” value ([4]; first set of heptamer studies, D-amino acid RRWWCRX series, methodology of Example I) was 112.2%. The “effectiveness relative to the non-acetylated peptide” value ([4]; inhibiting IL-8 binding to neutrophils) was “almost twice as effective”, the IC50 ([4]; read-out: IC50, binding of radiolabeled IL-8) was 13.7 µM and the Ki ([4]; specific binding of 125I-labeled IL-8, read-out: apparent K1 (estimated, purely competitive single site model)) was about 10 µM. The “% Binding Inhibition (IL-8 binding to neutrophils)” value ([4]; synthetic peptides, standard assay (Table 6)) was 98.6 ± 0.9%, the “interaction of the peptide with IL-8” value [5] was “does not interact with IL-8” and the EC50 ([6]; read-out: EC50, inhibition of enzyme release from neutrophils stimulated by IL-8) was 0.8 µM. The “peptide concentration inhibiting β-glucuronidase release” value ([6]; stimulated by 100 nM IL-8) was 2 µM.
